PMC11882969 (Nature Communications, 2025)
Values joined by “and” are separate entries in the source; they are usually repeats but may differ in a detail not shown here. Equal entries are not always repeated.

Target: hCB2 (Homo sapiens, UniProt P34972)
Experiment: bioSensAll ebBRET signaling profiling, hCB2
Type: cell-based
Parameters: host or cells: HEK293SL cells, transient PEI transfection
Settings: for RE, relative efficacy: vs CP-55,940; for G13 hCB2 / G15 hCB2 / Gq hCB2 / Gs hCB2: raw signal
[1] = Log [Compound] (M) not printed (line after -13)

hCB2, sequence (P34972 whole entry): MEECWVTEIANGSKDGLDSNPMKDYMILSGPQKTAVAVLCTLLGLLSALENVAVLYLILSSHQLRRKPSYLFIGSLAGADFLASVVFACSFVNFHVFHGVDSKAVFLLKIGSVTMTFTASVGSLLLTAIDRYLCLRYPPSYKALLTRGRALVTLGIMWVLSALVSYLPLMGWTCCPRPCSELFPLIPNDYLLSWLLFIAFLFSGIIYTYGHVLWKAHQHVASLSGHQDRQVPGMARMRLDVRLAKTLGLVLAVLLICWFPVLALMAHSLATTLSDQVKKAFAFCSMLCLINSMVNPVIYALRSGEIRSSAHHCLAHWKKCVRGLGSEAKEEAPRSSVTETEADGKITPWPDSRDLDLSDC

`COC(=O)C(C)(NC(=O)c1cc(C)n(-c2cccc(C(F)(F)F)c2)n1)c1cccs1` (stereo not drawn) [‘4042] was tested, and the “Barr2+GRK2 hCB2” value (Log [Compound] (M) -4.22186) was 36.6847 and 35.0372, the “Gi1 hCB2” value (Log [Compound] (M) -4.22186) was 75.671 and 56.3726 and the “Gi2 hCB2” value (Log [Compound] (M) -4.22186) was 69.4439. For the same molecule, the “GoB hCB2” value (Log [Compound] (M) -4.22186) was 52.0294 and 57.6529, the “Gz hCB2” value (Log [Compound] (M) -4.22186) was 65.903 and the “Barr2+GRK2 hCB2” value (Log [Compound] (M) -4.63927) was 30.1112 and 31.9388. For the same molecule, the “Gi1 hCB2” value (Log [Compound] (M) -4.63927) was 84.2769 and 74.9725, the “Gi2 hCB2” value (Log [Compound] (M) -4.63927) was 71.4813 and the “GoB hCB2” value (Log [Compound] (M) -4.63927) was 57.2898 and 66.4321. The “Gz hCB2” value (Log [Compound] (M) -4.63927) was 53.7774, the “Barr2+GRK2 hCB2” value (Log [Compound] (M) -5.05788) was 34.1076 and 21.894 and the “Gi1 hCB2” value (Log [Compound] (M) -5.05788) was 83.7031 and 72.7366. The “Gi2 hCB2” value (Log [Compound] (M) -5.05788) was 65.5506, the “GoB hCB2” value (Log [Compound] (M) -5.05788) was 61.864 and 59.6527 and the “Gz hCB2” value (Log [Compound] (M) -5.05788) was 52.6347. The “Barr2+GRK2 hCB2” value (Log [Compound] (M) -5.47381) was 32.3148 and 21.944, the “Gi1 hCB2” value (Log [Compound] (M) -5.47381) was 87.9518 and 88.1124 and the “Gi2 hCB2” value (Log [Compound] (M) -5.47381) was 70.9363. The “GoB hCB2” value (Log [Compound] (M) -5.47381) was 59.0585 and 62.0173, the “Gz hCB2” value (Log [Compound] (M) -5.47381) was 46.8061 and the “Barr2+GRK2 hCB2” value (Log [Compound] (M) -5.89285) was 35.0413 and 26.4416. The “Gi1 hCB2” value (Log [Compound] (M) -5.89285) was 81.7804 and 90.251, the “Gi2 hCB2” value (Log [Compound] (M) -5.89285) was 70.7805 and the “GoB hCB2” value (Log [Compound] (M) -5.89285) was 65.2185 and 62.9481. For the same molecule, the “Gz hCB2” value (Log [Compound] (M) -5.89285) was 53.1772, the “Barr2+GRK2 hCB2” value (Log [Compound] (M) -6.31878) was 26.1148 and 22.8935 and the “Gi1 hCB2” value (Log [Compound] (M) -6.31878) was 87.5021 and 87.0754. For the same molecule, the “Gi2 hCB2” value (Log [Compound] (M) -6.31878) was 73.3371, the “GoB hCB2” value (Log [Compound] (M) -6.31878) was 60.7357 and 59.0239 and the “Gz hCB2” value (Log [Compound] (M) -6.31878) was 50.6781. For the same molecule, the “Barr2+GRK2 hCB2” value (Log [Compound] (M) -6.72585) was 32.0907 and 32.9383, the “Gi1 hCB2” value (Log [Compound] (M) -6.72585) was 83.1759 and 83.592 and the “Gi2 hCB2” value (Log [Compound] (M) -6.72585) was 72.2081. For the same molecule, the “GoB hCB2” value (Log [Compound] (M) -6.72585) was 57.8234 and 61.5268, the “Gz hCB2” value (Log [Compound] (M) -6.72585) was 54.4186 and the “Barr2+GRK2 hCB2” value (Log [Compound] (M) -7.14267) was 30.5594 and 25.1923. For the same molecule, the “Gi1 hCB2” value (Log [Compound] (M) -7.14267) was 86.1686 and 79.3795, the “Gi2 hCB2” value (Log [Compound] (M) -7.14267) was 59.0489 and the “GoB hCB2” value (Log [Compound] (M) -7.14267) was 60.3698 and 62.0676. The “Gz hCB2” value (Log [Compound] (M) -7.14267) was 81.8754 and 46.0416, the “Barr2+GRK2 hCB2” value (Log [Compound] (M) -7.55284) was 24.7329 and 21.1444 and the “Gi1 hCB2” value (Log [Compound] (M) -7.55284) was 76.7565 and 80.3516. The “Gi2 hCB2” value (Log [Compound] (M) -7.55284) was 59.4123, the “GoB hCB2” value (Log [Compound] (M) -7.55284) was 49.2391 and 57.2756 and the “Gz hCB2” value (Log [Compound] (M) -7.55284) was 76.5196 and 38.421. The “Barr2+GRK2 hCB2” value (Log [Compound] (M) -8) was 20.8112 and 19.8451, the “Gi1 hCB2” value (Log [Compound] (M) -8) was 58.7695 and 64.9921 and the “Gi2 hCB2” value (Log [Compound] (M) -8) was 62.9552. For the same molecule, the “GoB hCB2” value (Log [Compound] (M) -8) was 43.3382 and 49.9051, the “Barr2+GRK2 hCB2” value (Log [Compound] (M) -8.22186) was 15.2835 and 10.4 and the “Gi1 hCB2” value (Log [Compound] (M) -8.22186) was 52.319 and 51.5606. The “Gi2 hCB2” value (Log [Compound] (M) -8.22186) was 51.7297, the “GoB hCB2” value (Log [Compound] (M) -8.22186) was 36.4463 and 41.3775 and the “Gz hCB2” value (Log [Compound] (M) -8.22186) was 67.5634 and 41.7257. The “Barr2+GRK2 hCB2” value (Log [Compound] (M) -8.39794) was 10.0546 and 6.052, the “Gi1 hCB2” value (Log [Compound] (M) -8.39794) was 41.3253 and 50.1024 and the “Gi2 hCB2” value (Log [Compound] (M) -8.39794) was 43.6058. The “GoB hCB2” value (Log [Compound] (M) -8.39794) was 31.1707 and 34.2586, the “Barr2+GRK2 hCB2” value (Log [Compound] (M) -8.68787) was 5.6847 and 8.001 and the “Gi1 hCB2” value (Log [Compound] (M) -8.68787) was 42.5968 and 33.949. The “Gi2 hCB2” value (Log [Compound] (M) -8.68787) was 35.8583, the “Gi2 hCB2” value (Log [Compound] (M) -9.15521) was 25.8008 and the “Gi2 hCB2” value (Log [Compound] (M) -9.61989) was -4.618. For the same molecule, the “Gi2 hCB2” value (Log [Compound] (M) -10.0969) was -5.163, the “Gi2 hCB2” value (Log [Compound] (M) -10.5529) was -5.566 and the “Gi2 hCB2” value (Log [Compound] (M) -11.0177) was -11.8727. For the same molecule, the “Gi2 hCB2” value (Log [Compound] (M) -11.4949) was -13.975, the “Gi2 hCB2” value (Log [Compound] (M) -11.9208) was -11.7429 and the “Gi2 hCB2” value (Log [Compound] (M) -12.3979) was -12.3529. The “Gi2 hCB2” value (Log [Compound] (M) -12.8861) was -13.7415, the “Gi2 hCB2” value (Log [Compound] (M) -13) was -11.7689 and the “Barr2+GRK2 hCB2” value [1] was 1.105. The “Gi1 hCB2” value [1] was -2.635, the “GoB hCB2” value [1] was -0.7449 and the “Gz hCB2” value [1] was 1.526. For the same molecule, the “pEC50 [95% CI]” value (hCB2 Barr2 + GRK2) was 8.26 [8.1 – 8.5], the “pEC50 [95% CI]” value (hCB2 Gi1) was 8.58 [8.5 – 8.7] and the “RE, relative efficacy” value (hCB2 Gi1) was 0.63. The “pEC50 [95% CI]” value (hCB2 Gi2) was 8.90 [8.8 – 9.0], the “RE, relative efficacy” value (hCB2 Gi2) was 0.59 and the “pEC50 [95% CI]” value (hCB2 GoB) was 8.60 [8.5 – 8.7]. For the same molecule, the “RE, relative efficacy” value (hCB2 GoB) was 0.47, the “pEC50 [95% CI]” value (hCB2 Gz) was 8.87 [8.5 – 9.3] and the “RE, relative efficacy” value (hCB2 Gz) was 0.38. For the same molecule, the “RE, relative efficacy” value (hCB2 ßarr2+GRK2) was 0.82, the “G13 hCB2” value (Log [Compound] (M) -4.22186) was 669 and the “G15 hCB2” value (Log [Compound] (M) -4.22186) was 923. For the same molecule, the “Gq hCB2” value (Log [Compound] (M) -4.22186) was 1840, the “Gs hCB2” value (Log [Compound] (M) -4.22186) was 9076 and the “G13 hCB2” value (Log [Compound] (M) -4.63927) was 511. The “G15 hCB2” value (Log [Compound] (M) -4.63927) was 896, the “Gq hCB2” value (Log [Compound] (M) -4.63927) was 1838 and the “Gs hCB2” value (Log [Compound] (M) -4.63927) was 9146.
